Reference: article PMC6003569, “Novel fluorinated carbonic anhydrase IX inhibitors reduce hypoxia-induced acidification and clonogenic survival of cancer cells” (Oncotarget, 2018)
Entries after “also recorded” stand apart in the source; their conditions may differ. Like-named read-outs stand apart in the source and are kept apart here.

Columns and labels:
[1] = tested on: extracellular CA in intact hypoxic MDA-MB-231 cells; settings: 1 μM; cited from earlier work
H460 cells [2] = test: alamarBlue cell viability assay; format: cell-based; settings: Homo sapiens, NCI-H460, 72 h
Description: (§3) Cytotoxicity of inhibitors was determined by the alamarBlue® cell viability assay (Life Technologies). […] Briefly, cells were seeded in 96-well plates and allowed to attach overnight in normoxia. […] After 72 h, cells were incubated with 10% alamarBlue® for 2 h under normoxia at 37° C. The fluorescence signal was measured using the multi-mode microplate reader (FLUOstar® Omega, BMG Labtech) at 580 nm (excitation wavelength 540 nm). Response to treatments was quantified by evaluating EC50 values (concentration of inhibitor that leads to half-maximum viability response determined by Hill fit).

CA IX [3] = target: T1, CA IX (Homo sapiens, UniProt Q16790); test: Stopped-flow CO2 hydration inhibition assay (SFA); format: biochemical; settings: pH 7.5, 25° C, value in parentheses
T1 construct: 12 recombinant catalytic domains of human active CA isoforms as determined by FTSA
Description: (§1) The enzymatic activity of carbonic anhydrase isoforms and their inhibition was determined by the stopped-flow CO2 hydration assay where the formed acid was followed by the absorbance change of a pH indicator. The Applied Photophysics SX.18MV-R stopped-flow spectrometer was used to measure the absorbance change of Phenol-Red pH indicator at 557 nm. Saturated CO2 solution was prepared by bubbling the CO2 gas in MilliQ water at 25° C for 1 h. Experiments were performed at 25° C using 25 mM Hepes buffer containing 50 mM NaCl (pH 7.5), 0–10 μM compound with the final 0.4% (v/v) DMSO concentration. The final enzyme concentration was 10 nM for CA IX and 20 nM for CA XII. Raw curves of absorbance change were analyzed using Origin 8.1 (OriginLab Corporation) and the slope values were used to evaluate the rates of CO2 hydration. Spontaneous CO2 hydration rate was used as a zero value, while the CA catalyzed reaction rate - as a maximum value.

HeLa cells [4] = test: alamarBlue cell viability assay; format: cell-based, human; settings: 72 h; for EC50: Homo sapiens, HeLa
Description: as §3

H460 cells [5] = test: Extracellular acidification (pH) assay; format: cell-based, human; settings: H460, hypoxia 0.2% O2, 72 h
CA IX [6] = target: T1, CA IX; test: Fluorescent thermal shift assay (FTSA); format: binding; settings: pH 7.0, 37° C
Description: (§2) The binding affinity of synthesized compounds to recombinant human CAs was measured by the fluorescent thermal shift assay (FTSA) where the thermal stabilization of the protein by the compound was determined by following the fluorescence dependence on temperature at various added compound concentrations. The melting temperature (Tm) of CA was measured using the Corbett Rotor-Gene 6000 instrument (QIAGEN Rotor-Gene Q, excitation at 365 ± 20 nm, emission detection at 460 ± 15 nm). The protein was heated from 25 to 99° C at a rate of 1° C/min and the fluorescence change of the solvatochromic dye 8-anilino-1-naphthalene sulfonate (ANS) was followed. The samples consisted of 5–10 μM CA, 0–200 μM ligand, 50 μM ANS, and 50 mM sodium phosphate buffer containing 100 mM NaCl at pH 7.0, with the final DMSO concentration of 2% (v/v). Protein unfolding profiles and the melting temperatures were determined at each ligand concentration while recording extrinsic fluorescence of ANS. Data analysis was performed as previously described. All experiments were repeated at least twice.

CA I = target: T2, CA I (Homo sapiens, UniProt P00915); test: Fluorescent thermal shift assay (FTSA); format: binding; settings: pH 7.0, 37° C
T2 construct: 12 recombinant catalytic domains of human active CA isoforms as determined by FTSA
Description: as §2

CA XII [7] = target: T3, CA XII (Homo sapiens, UniProt O43570); test: Fluorescent thermal shift assay (FTSA); format: binding; settings: pH 7.0, 37° C
T3 construct: 12 recombinant catalytic domains of human active CA isoforms as determined by FTSA
Description: as §2

CA VA = target: T4, CA VA (Homo sapiens, UniProt P35218); test: Fluorescent thermal shift assay (FTSA); format: binding; settings: pH 7.0, 37° C
T4 construct: 12 recombinant catalytic domains of human active CA isoforms as determined by FTSA
Description: as §2

CA II = target: T5, CA II (Homo sapiens, UniProt P00918); test: Fluorescent thermal shift assay (FTSA); format: binding; settings: pH 7.0, 37° C
T5 construct: 12 recombinant catalytic domains of human active CA isoforms as determined by FTSA
Description: as §2

CA VI = target: T6, CA VI (Homo sapiens, UniProt P23280); test: Fluorescent thermal shift assay (FTSA); format: binding; settings: pH 7.0, 37° C
T6 construct: 12 recombinant catalytic domains of human active CA isoforms as determined by FTSA
Description: as §2

CA XIII = target: T7, CA XIII (Homo sapiens, UniProt Q8N1Q1); test: Fluorescent thermal shift assay (FTSA); format: binding; settings: pH 7.0, 37° C
T7 construct: 12 recombinant catalytic domains of human active CA isoforms as determined by FTSA
Description: as §2

CA XIV = target: T8, CA XIV (Homo sapiens, UniProt Q9ULX7); test: Fluorescent thermal shift assay (FTSA); format: binding; settings: pH 7.0, 37° C
T8 construct: 12 recombinant catalytic domains of human active CA isoforms as determined by FTSA
Description: as §2

CA VII = target: T9, CA VII (Homo sapiens, UniProt P43166); test: Fluorescent thermal shift assay (FTSA); format: binding; settings: pH 7.0, 37° C
T9 construct: 12 recombinant catalytic domains of human active CA isoforms as determined by FTSA
Description: as §2

CA VB = target: T10, CA VB (Homo sapiens, UniProt Q9Y2D0); test: Fluorescent thermal shift assay (FTSA); format: binding; settings: pH 7.0, 37° C
T10 construct: 12 recombinant catalytic domains of human active CA isoforms as determined by FTSA
Description: as §2

CA IV = target: T11, CA IV (Homo sapiens, UniProt P22748); test: Fluorescent thermal shift assay (FTSA); format: binding; settings: pH 7.0, 37° C
T11 construct: 12 recombinant catalytic domains of human active CA isoforms as determined by FTSA
Description: as §2

CA III = target: T12, CA III (Homo sapiens, UniProt P07451); test: Fluorescent thermal shift assay (FTSA); format: binding; settings: pH 7.0, 37° C
T12 construct: 12 recombinant catalytic domains of human active CA isoforms as determined by FTSA
Description: as §2

AsPC-1 cells [8] = test: alamarBlue cell viability assay; format: cell-based; settings: Homo sapiens, ASPC1, 48 h
Description: as §3

CA XII [9] = target: T3, CA XII; test: Stopped-flow CO2 hydration inhibition assay (SFA); format: biochemical; settings: pH 7.5, 25° C, value in parentheses
Description: as §1

HeLa cells [10] = test: Extracellular acidification (pH) assay; format: cell-based, human; settings: for hypoxia-induced extracellular acidification: hypoxia 0.2% O2, 72 h, 5–50 μM; for effect on extracellular acidification under normoxia: normoxia 21% O2, 72 h
H460 spheroids = test: Clonogenic cell survival assay, 3D spheroids; format: cell-based, human; settings: non-hypoxic (day 4) versus hypoxic (day 11) H460 spheroids, 5–15 μM, 24 h
Description: Clonogenic survival of HeLa cell monolayers was evaluated using cell densities applied in the extracellular acidification assay to determine the effect of inhibitors on the clonogenic cell survival while having the same acidification conditions. […] Then cells were trypsinized, reseeded in triplicate with known cell densities and allowed to form colonies for 14 days. […] Single cell suspensions were prepared and cells were plated in triplicate with known cell densities and allowed to form colonies for 14 days. […] Surviving fraction was normalized to vehicle (DMSO). To prepare plates for the growth of attachment-free H460 spheroids, autoclaved 1.5% w/v agarose (Sigma-Aldrich) was dispensed in the inner 60 wells of 96-well plates (50 μL/well) and left for polymerization at room temperature for 30 min. H460 cells were plated in modified 96-well plates to the surface of agarose menisci with a density of 500 cells/well. The DMEM was refreshed every two days. After 7 or 11 days in culture, spheroids were incubated with 20 μg/mL pimonidazole (PIMO, Hypoxyprobe-1, HP-1000, BioConnect) for 2 h at 37° C, collected and cryoconserved for immunofluorescence analysis (see below).

[11] = tested on: CA activity in hypoxic HeLa CA IX KO cells; test: CA catalytic activity via MS gas-analysis, CA IX knockout cells; format: cell-based, human; settings: both HeLa CA IX KO lines
Description: The reaction sequence of ^18O loss from ^13C^18O^18O (m/z = 49) over the intermediate product ^13C^18O^16O (m/z = 47) and the end product ^13C^16O^16O (m/z = 45) was monitored with a quadrupole mass spectrometer (OmniStar GSD 320; Pfeiffer Vacuum, Asslar, Germany). The relative ^18O enrichment was calculated from the measured 45, 47, and 49 m/z abundance as a function of time according to: log enrichment = log (49×100/(49+47+45)). For the calculation of CA activity, the rate of ^18O depletion was obtained from the linear slope of the log enrichment over the time, using OriginPro 8.6 (OriginLab Corporation). The rate was compared with the corresponding rate of the non-catalyzed reaction. Enzyme activity in units (U) was calculated from these two values as defined by Badger and Price [59]. […] For every measurement, the non-catalyzed reaction was determined for 6 min in the presence of inhibitor, before cell suspension was added to the measuring cuvette and the catalyzed reaction was determined for 8 min. […] IC50 values were determined by Hill equation using OriginPro 8.6. To investigate specificity of the inhibitors in HeLa WT and HeLa CA IX KO cells, the non-catalyzed reaction was determined for 6 min in the absence of inhibitor, before a suspension of 5 × 10^6 cells was added to the measuring cuvette. […]

AsPC-1 cells [12] = test: Extracellular acidification (pH) assay; format: cell-based, human; settings: AsPC-1, hypoxia 0.2% O2, 72 h
[13] = tested on: 4 investigated cell lines; test: Extracellular acidification (pH) assay, cell line panel; format: cell-based, human; settings: 50 μM, hypoxia 0.2% O2, 72 h
Description: HeLa, H460, MDA-MB-231, and AsPC-1 cells were cultured in DMEM (Lonza) supplemented with 10% FBS (Lonza), whereas A549 cells were grown in-house made analogous medium differing only by a lower amount of sodium bicarbonate (final concentration 10 mM). Cell densities for each cell line were optimized to get ~100% confluence at the end of experiment under normoxic and hypoxic (0.2% O2) conditions upon vehicle (0.05% DMSO) treatment. Such conditions were necessary to obtain the highest possible level of CA IX-dependent extracellular acidification. Cells were plated in 6 cm dishes and allowed to attach overnight in normoxia. […] Results are shown as a difference between the pH of medium in the control plate (without seeded cells) and the pH of medium in the targeted plate (cells exposed to the compound or vehicle).

MDA-MB-231 cells = test: alamarBlue cell viability assay; format: cell-based; settings: Homo sapiens, MDA-MB-231, 72 h
Description: as §3

A549 cells = test: alamarBlue cell viability assay; format: cell-based; settings: Homo sapiens, A549, 72 h
Description: as §3

[14] = H460, 0.2% O2 (hypoxia), read-out: EC50
[15] = H460, 21% O2 (normoxia), read-out: EC50
[16] = 0.2% O2 (hypoxia), read-out: EC50
[17] = 21% O2 (normoxia), read-out: EC50

T3 sequence (O43570 30-289 limits assumed): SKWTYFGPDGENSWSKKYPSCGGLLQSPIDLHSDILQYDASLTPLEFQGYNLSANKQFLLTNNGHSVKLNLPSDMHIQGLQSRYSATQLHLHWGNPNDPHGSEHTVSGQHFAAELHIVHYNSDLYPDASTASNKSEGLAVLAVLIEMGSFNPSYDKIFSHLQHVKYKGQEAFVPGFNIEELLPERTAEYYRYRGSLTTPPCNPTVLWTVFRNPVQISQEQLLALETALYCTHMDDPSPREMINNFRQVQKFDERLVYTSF
T10 sequence (Q9Y2D0 37-296 limits assumed): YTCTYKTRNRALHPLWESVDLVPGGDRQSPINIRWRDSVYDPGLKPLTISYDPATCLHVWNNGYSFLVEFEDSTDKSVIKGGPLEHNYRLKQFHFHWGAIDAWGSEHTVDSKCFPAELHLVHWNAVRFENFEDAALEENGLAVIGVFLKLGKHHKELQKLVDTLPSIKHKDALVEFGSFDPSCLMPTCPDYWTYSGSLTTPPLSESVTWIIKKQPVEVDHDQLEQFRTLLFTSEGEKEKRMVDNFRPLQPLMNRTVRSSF
T2 sequence (P00915 4-261 limits assumed): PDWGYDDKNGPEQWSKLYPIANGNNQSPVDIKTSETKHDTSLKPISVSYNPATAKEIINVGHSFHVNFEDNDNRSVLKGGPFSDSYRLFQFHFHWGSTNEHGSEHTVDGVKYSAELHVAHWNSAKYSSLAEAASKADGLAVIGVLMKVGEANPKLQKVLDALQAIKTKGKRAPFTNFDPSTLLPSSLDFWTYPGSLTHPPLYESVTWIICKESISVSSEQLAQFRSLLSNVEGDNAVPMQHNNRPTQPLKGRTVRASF
T7 sequence (Q8N1Q1 4-261 limits assumed): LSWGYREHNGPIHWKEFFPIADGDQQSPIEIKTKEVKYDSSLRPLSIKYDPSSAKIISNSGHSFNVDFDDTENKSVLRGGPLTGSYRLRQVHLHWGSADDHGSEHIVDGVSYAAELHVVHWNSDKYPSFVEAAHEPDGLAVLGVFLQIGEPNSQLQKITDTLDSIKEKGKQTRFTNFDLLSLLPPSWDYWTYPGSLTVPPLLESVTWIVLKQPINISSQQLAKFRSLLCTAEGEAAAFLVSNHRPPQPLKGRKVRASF
T12 sequence (P07451 3-259 limits assumed): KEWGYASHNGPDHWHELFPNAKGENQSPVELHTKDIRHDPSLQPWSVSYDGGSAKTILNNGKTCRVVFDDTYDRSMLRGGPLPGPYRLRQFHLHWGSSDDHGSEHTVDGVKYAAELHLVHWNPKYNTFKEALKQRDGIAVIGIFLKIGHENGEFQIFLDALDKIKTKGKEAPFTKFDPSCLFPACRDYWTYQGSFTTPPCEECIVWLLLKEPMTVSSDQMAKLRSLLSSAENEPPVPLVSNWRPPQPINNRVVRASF
T4 sequence (P35218 39-296 limits assumed): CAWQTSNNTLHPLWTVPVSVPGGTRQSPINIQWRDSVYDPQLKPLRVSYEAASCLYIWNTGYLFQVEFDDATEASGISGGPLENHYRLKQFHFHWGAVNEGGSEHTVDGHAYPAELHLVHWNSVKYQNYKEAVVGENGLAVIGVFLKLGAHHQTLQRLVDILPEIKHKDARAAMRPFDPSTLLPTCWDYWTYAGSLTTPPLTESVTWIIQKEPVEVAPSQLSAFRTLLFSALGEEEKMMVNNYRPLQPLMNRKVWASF
T11 sequence (P22748 21-285 limits assumed): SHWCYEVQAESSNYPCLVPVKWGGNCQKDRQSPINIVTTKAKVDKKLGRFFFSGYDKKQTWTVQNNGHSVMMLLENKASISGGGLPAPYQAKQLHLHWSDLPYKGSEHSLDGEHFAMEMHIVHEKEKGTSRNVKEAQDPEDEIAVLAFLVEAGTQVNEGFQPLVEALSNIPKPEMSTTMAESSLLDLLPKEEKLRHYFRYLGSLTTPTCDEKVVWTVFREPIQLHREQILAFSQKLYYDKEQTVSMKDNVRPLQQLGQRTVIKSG
T8 sequence (Q9ULX7 20-278 limits assumed): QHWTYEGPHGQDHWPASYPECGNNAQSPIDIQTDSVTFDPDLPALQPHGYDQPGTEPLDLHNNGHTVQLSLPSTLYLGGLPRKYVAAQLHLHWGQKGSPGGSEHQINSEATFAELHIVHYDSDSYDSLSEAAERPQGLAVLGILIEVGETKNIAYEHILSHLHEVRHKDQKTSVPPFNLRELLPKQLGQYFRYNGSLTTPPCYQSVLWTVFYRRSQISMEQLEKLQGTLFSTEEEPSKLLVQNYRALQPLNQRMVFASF
T9 sequence (P43166 5-262 limits assumed): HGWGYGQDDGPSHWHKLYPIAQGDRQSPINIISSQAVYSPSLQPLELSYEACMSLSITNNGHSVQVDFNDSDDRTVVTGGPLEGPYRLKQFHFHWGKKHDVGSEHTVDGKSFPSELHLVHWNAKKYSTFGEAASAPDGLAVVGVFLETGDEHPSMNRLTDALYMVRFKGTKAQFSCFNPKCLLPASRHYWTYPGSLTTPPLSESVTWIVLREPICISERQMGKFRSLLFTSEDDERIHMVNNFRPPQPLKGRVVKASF
T6 sequence (P23280 21-278 limits assumed): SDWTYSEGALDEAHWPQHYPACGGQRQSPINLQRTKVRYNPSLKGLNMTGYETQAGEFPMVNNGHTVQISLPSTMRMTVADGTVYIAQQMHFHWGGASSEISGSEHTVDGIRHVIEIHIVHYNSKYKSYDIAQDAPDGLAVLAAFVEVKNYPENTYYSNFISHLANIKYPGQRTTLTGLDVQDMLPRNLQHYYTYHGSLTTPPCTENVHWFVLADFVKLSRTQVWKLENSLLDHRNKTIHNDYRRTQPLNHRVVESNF

| EC50 (H460 cells [2]; [14]) | EC50 (H460 cells [2]; [15]) | Ki (CA IX [3]) | EC50 (HeLa cells [4]; [16]) | EC50 (HeLa cells [4]; [17]) | Kd (CA IX [6]) | Kd (CA I) | Kd (CA XII [7]) | Kd (CA VA) | Kd (CA II) | Kd (CA VI) | Kd (CA XIII) | Kd (CA XIV) | Kd (CA VII) | Kd (CA VB) | Kd (CA IV) | Kd (CA III) | SMILES | hypoxia-induced extracellular acidification (HeLa cells [10]) | effect on extracellular acidification under normoxia (HeLa cells [10]) | other results |
| --- | --- | --- | --- | --- | --- | --- | --- | --- | --- | --- | --- | --- | --- | --- | --- | --- | --- | --- | --- | --- |
| – | – | – | – | – | – | – | – | – | – | – | – | – | – | – | – | – | CC(=O)Nc1nnc(S(N)(=O)=O)s1 [acetazolamide] | – | – | Extracellular CA activity [1]: significantly reduced |
| > 150 µM | 83.3 ± 15.3 µM | < 0.001 µM | > 150 µM | 93.3 ± 5.8 µM | 0.0002 µM | 5 µM | 0.37 µM | 5 µM | 1 µM | 26.3 µM | 0.04 µM | 0.17 µM | 0.1 µM | 0.1 µM | 1.82 µM | ≥ 200 µM | NS(=O)(=O)c1c(F)c(F)c(SCCc2ccc(C(=O)O)cc2)c(F)c1NC1CCCCCCC1 [VR16-10, 4-(2-{[4-(Aminosulfonyl)-3-(cyclooctylamino)-2,5,6-tetrafluorophenyl]thio}ethyl)benzoic acid] | – | – | Cytotoxic ratio (CR) of selectivity to hypoxia (HeLa cells [4]; human, HeLa cells): > 0.62; hypoxia-induced extracellular acidification (H460 cells [5]): Dose-dependent reduction; also recorded: smallest, albeit significant (p < 0.05), impact |
| 40 ± 9.6 µM | 19.3 ± 3.6 µM | < 0.001 µM | 40.8 ± 9.6 µM | 20.2 ± 4.3 µM | 0.00016 µM | ≥ 200 µM | 0.71 µM | ≥ 200 µM | ≥ 200 µM | ≥ 200 µM | 0.02 µM | 0.17 µM | 37 µM | 45 µM | ≥ 200 µM | ≥ 200 µM | NS(=O)(=O)c1c(F)c(F)c(SCCc2ccc(C(=O)O)cc2)c(F)c1NC1CCCCCCCCCCC1 [VR16-09, 4-(2-{[4-(Aminosulfonyl)-3-(cyclododecylamino)-2,5,6-tetrafluorophenyl]thio}ethyl)benzoic acid] | significantly (p < 0.05) reduced | negligible | EC50 (AsPC-1 cells [8]; AsPC-1, 0.2% O2 (hypoxia), read-out: EC50): 160 ± 17 µM; EC50 (AsPC-1 cells [8]; AsPC-1, 21% O2 (normoxia), read-out: EC50): 153 ± 23 µM; Ki (CA XII [9]): 0.1 µM; clonogenic survival of cells derived from spheroids (H460 spheroids): hypoxia-dependent effect on clonogenic survival; CA activity after addition of inhibitor ([11]; 300 nM): did not alter CA activity; hypoxia-induced acidosis (AsPC-1 cells [12]): increased; hypoxia-induced acidosis [13]: significantly reduced; EC50 (MDA-MB-231 cells; MDA-MB-231, 0.2% O2 (hypoxia), read-out: EC50): 84.2 ± 4.9 µM; EC50 (MDA-MB-231 cells; MDA-MB-231, 21% O2 (normoxia), read-out: EC50): 74.2 ± 3.8 µM; EC50 (A549 cells; A549, 0.2% O2 (hypoxia), read-out: EC50): 76.7 ± 2.9 µM; EC50 (A549 cells; A549, 21% O2 (normoxia), read-out: EC50): 17 ± 1 µM |
| – | – | – | – | – | – | – | – | – | – | – | – | – | – | – | – | – | NS(=O)(=O)c1c(F)c(F)c(SCCO)c(F)c1NC1CCCCCCC1 [VD12-09] | significantly (p < 0.05) reduced | negligible | EC50 (AsPC-1 cells [8]; AsPC-1, 0.2% O2 (hypoxia)): 83.3 ± 5.8 µM; EC50 (AsPC-1 cells [8]; AsPC-1, 21% O2 (normoxia)): 100 ± 20 µM; EC50 (H460 cells [2]; H460, 0.2% O2 (hypoxia)): 37 ± 7.6 µM; EC50 (H460 cells [2]; H460, 21% O2 (normoxia)): 17.8 ± 2.2 µM; EC50 (HeLa cells [4]; 0.2% O2 (hypoxia)): 46.9 ± 7 µM; EC50 (HeLa cells [4]; 21% O2 (normoxia)): 21.6 ± 4.1 µM; CA activity after addition of inhibitor ([11]; 30 μM): did not alter CA activity; EC50 (MDA-MB-231 cells; MDA-MB-231, 0.2% O2 (hypoxia)): 67.6 ± 7.1 µM; EC50 (MDA-MB-231 cells; MDA-MB-231, 21% O2 (normoxia)): 55.4 ± 6.6 µM; EC50 (A549 cells; A549, 0.2% O2 (hypoxia)): 98.8 ± 8.5 µM; EC50 (A549 cells; A549, 21% O2 (normoxia)): 33.8 ± 2.5 µM |
